According to patent US4029780A, “3-Piperazinyl 1,2,4-benzothiadiazine 1,1-dioxide derivatives their compositions and method of use” (Dainippon Pharmaceutical Co., Ltd., priority 1974, dated 1977):

Columns and labels:
[1] = literature, cited from earlier work
[2] = system: Spontaneously hypertensive male rats; assay: Antihypertensive activity in spontaneously hypertensive rats (oral, 10 successive days); type: in vivo, rat; conditions: for Fall in blood pressure / Blood pressure: 10 mg/kg/day p.o.
Procedure: Spontaneously hypertensive male rats [SHR, Jap. Circ. J. 27, 282-93 (1963)] being 18-23 weeks of age and having systolic blood pressure levels of 170-190 mmHg were used. The test compounds were each suspended in a 0.5% aqueous tragacanth solution and administered orally in a dose of 10 mg/kg/day by stomach tube to SHR once a day for 10 successive days. The blood pressure of conscious SHR was measured prior to dosing and 5 hours after administration. It was also measured once daily over a period of 7 days after the end of the treatment period. The measurement of the blood pressure was made by a plethysmographtail method [Jap. Circ. J. 27, 282-93 (1963)].

Male Wistar rats [3] = assay: Effect on blood glucose (a), oral; conditions: 300 mg/kg p.o.
Procedure: (a) Male Wistar rats weighing 190-210 g were used. Each test compound was suspended in a concentration of 150 mg/ml in a 0.5% aqueous tragacanth solution and orally administered at a dose of 300 mg/kg by the stomach tube.

Male Wistar rats [4] = assay: Effect on blood glucose (b), intraperitoneal; conditions: 300 mg/kg i.p.
Procedure: (b) Male Wistar rats weighing 260-285 g were used. […] 4 ml/kg of the above solution of each test compound was intraperitoneally administered to each animal. The blood samples were taken prior to dosing and 1, 3 and 6 hours after the administration and the plasma glucose levels were determined in a similar manner to that described in (a).

Male Wistar rats [5] = assay: Effect on urine volume and electrolyte excretion; type: in vivo, rat
Procedure: Male Wistar rats weighing 220 to 260 g were used. Each test compound was suspended in a solution of tragacanth dissolved in a concentration of 0.5% in a 0.9% saline solution so that the volume of the resulting suspension to be administered would be always 25 ml/Kg. The test compounds were administered orally by the stomach tube to the animals at the prescribed doses. The animals were then placed in a metabolic cage and the urine was collected over a period of 5 hours. The total amount of sodium, potassium and chloride excreted was determined by Auto-Analyzer, made by Technicon Instruments Corporation.

[6] = day 0, 5 hours after administration
[7] = day 2, 5 hours after administration
[8] = day 4, 5 hours after administration
[9] = day 6, 5 hours after administration
[10] = day 8, 5 hours after administration
[11] = day 10, 24 hours after the final treatment
[12] = day 14, 120 hours after the final treatment
[13] = 100 mg/kg p.o., urinary excretion over 5 hours

Row | Compound | Antihypertensive activity [1] | Fall in blood pressure [2] | Blood pressure [2, 6] [mm Hg] | Blood pressure ([2]; day 0, prior to dosing (0)) [mm Hg] | Blood pressure [2, 7] [mm Hg] | Blood pressure ([2]; day 2, prior to dosing (0)) [mm Hg] | Blood pressure [2, 8] [mm Hg] | Blood pressure ([2]; day 4, prior to dosing (0)) [mm Hg] | Blood pressure [2, 9] [mm Hg] | Blood pressure ([2]; day 6, prior to dosing (0)) [mm Hg] | Blood pressure [2, 10] [mm Hg] | Blood pressure ([2]; day 8, prior to dosing (0)) [mm Hg] | Blood pressure [2, 11] [mm Hg] | Blood pressure [2, 12] [mm Hg] | Blood glucose (Male Wistar rats [3]; 0 hr (prior to dosing)) [mg/dL] | Blood glucose (Male Wistar rats [3]; 1 hr) [mg/dL] | Blood glucose (Male Wistar rats [3]; 3 hr) [mg/dL] | Blood glucose (Male Wistar rats [3]; 6 hr) [mg/dL] | Blood glucose (Male Wistar rats [3]; 10 hr) [mg/dL] | Blood glucose (Male Wistar rats [4]; 0 hr (prior to dosing)) [mg/dL] | also measured
1 | O=S1(=O)NC(N2CCOCC2)=Nc2cc(C(F)(F)F)ccc21 [3-morpholino-6-trifluoromethyl-2H-1,2,4-benzothiadiazine 1,1-dioxide] | no antihypertensive activity | – | – | – | – | – | – | – | – | – | – | – | – | – | – | – | – | – | – | – | –
2 | COc1cc2c(cc1OC)S(=O)(=O)NC(N1CCN(C)CC1)=N2 [Compound 1, 6,7-Dimethoxy-3-(4-methyl-1-piperazinyl)-2H-1,2,4-benzothiadiazine 1,1-dioxide] | no antihypertensive activity | did not cause any significant fall in blood pressure | 188 | 189 | 186 | 187 | 184 | 185 | 184 | 187 | 187 | 189 | 187 | 188 | – | – | – | – | – | – | –
3 | O=S1(=O)NC(N2CCCCC2)=Nc2ccccc21 [Compound 2, 3-Piperidino-2H-1,2,4-benzothiadiazine 1,1-dioxide] | – | did not cause any significant fall in blood pressure | 180 | 187 | 181 | 186 | 183 | 182 | 186 | 186 | 183 | 186 | 184 | 182 | – | – | – | – | – | – | Antihypertensive activity in oral administration ([2]; oral): does not show antihypertensive activity; Antihypertensive activity in intravenous administration ([1]; intravenous): slight antihypertensive activity
4 | NS(=O)(=O)c1cc2c(cc1Cl)NCNS2(=O)=O [Compound 4, Hydrochlorothiazide] | – | – | 168 | 172 | 152 | 163 | 150 | 158 | 138 | 151 | 140 | 152 | 153 | 165 | 104 | 114 | 111 | 112 | 113 | 100 | Blood glucose (Male Wistar rats [4]; 1 hr): 257 mg/dL; Blood glucose (Male Wistar rats [4]; 3 hr): 220 mg/dL; Blood glucose (Male Wistar rats [4]; 6 hr): 144 mg/dL; Change in Na+/K+ (Male Wistar rats [5]; 1 mg/kg p.o.): marked increase; Cl- (Male Wistar rats [5]; 1.0 mg/kg p.o., urinary excretion over 5 hours): 1.38 mEq
5 | CN1CCN(C2=Nc3ccccc3S(=O)(=O)N2)CC1 [Compound B, 3-(4-methyl-1-piperazinyl)-2H-1,2,4-benzothiadiazine 1,1-dioxide] | – | – | 167 | 169 | 161 | 167 | 154 | 159 | 144 | 160 | 136 | 149 | 146 | 166 | 106 | 107 | 109 | 104 | 110 | 100 | Effect on blood glucose level (Male Wistar rats [3]; rats): substantially no effect; Blood glucose (Male Wistar rats [4]; 1 hr): 111 mg/dL; Blood glucose (Male Wistar rats [4]; 3 hr): 115 mg/dL; Blood glucose (Male Wistar rats [4]; 6 hr): 125 mg/dL; Effect on blood glucose level (Male Wistar rats [4]; rats): substantially no effect; Change in electrolyte excretion (Male Wistar rats [5]; 100 mg/kg p.o.): no significant change; Change in urine volume (Male Wistar rats [5]; 100 mg/kg p.o.): no significant change; Urine volume (Male Wistar rats [5]; 100 mg/kg p.o., 5 hours): 3.06 mL; Cl- (Male Wistar rats [5]; [13]): 0.89 mEq; K+ (Male Wistar rats [5]; [13]): 0.48 mEq; Na+ (Male Wistar rats [5]; [13]): 0.64 mEq; Na+/K+ (Male Wistar rats [5]; [13]): 1.34
